Reference: PubChem BioAssay AID256 (DTP/NCI, 2004)
Where “and” joins values, the source holds several entries; their conditions need not be identical. Equal entries are not always repeated. Inconclusive results and toxic doses are left out. Non-standard residues stand in square brackets, D forms with d. Residues, ends and D or L forms follow the SMILES beside them. ξ: configuration not given here. *: point of attachment. Hexanoyl = CCCCCC(=O)*; ξP = O=C(O)C1CCCN1; Ava = NCCCCC(=O)O

Tested on: CD2F1 mice, L1210 leukemia ip, survival T/C
Assay: NCI In Vivo Anticancer Drug Screen. Data for tumor model L1210 Leukemia (intraperitoneal) in CD2F1 (CDF1) mice
Conditions: higher = longer survival
Outline: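 Antitumor effect is scored in animals hosting a serially transplanted tumor. Values compare compound-dosed animals against vehicle-only controls as a simple quotient.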

[1] = endpoint: mean survival time, dose: 50.0 mg/kg/injection, schedule: Q04DX003 (ip), vehicle: saline
[2] = endpoint: mean survival time, dose: 100.0 mg/kg/injection, schedule: Q04DX003 (ip), vehicle: saline
[3] = endpoint: mean survival time, dose: 200.0 mg/kg/injection, schedule: Q04DX003 (ip), vehicle: saline
[4] = endpoint: mean survival time, dose: 100.0 mg/kg/injection, schedule: Q01DX009 (ip), vehicle: saline with Tween-80
[5] = endpoint: mean survival time, dose: 200.0 mg/kg/injection, schedule: Q01DX009 (ip), vehicle: saline with Tween-80
[6] = endpoint: mean survival time, dose: 100.0 mg/kg/injection, schedule: Q04DX002 (ip), vehicle: saline with Tween-80
[7] = endpoint: mean survival time, dose: 200.0 mg/kg/injection, schedule: Q04DX002 (ip), vehicle: saline with Tween-80
[8] = endpoint: mean survival time, dose: 400.0 mg/kg/injection, schedule: Q04DX002 (ip), vehicle: saline with Tween-80
[9] = endpoint: mean survival time, dose: 100.0 mg/kg/injection, schedule: Q04DX002 (ip), vehicle: saline
[10] = endpoint: mean survival time, dose: 200.0 mg/kg/injection, schedule: Q04DX002 (ip), vehicle: saline
[11] = endpoint: mean survival time, dose: 200.0 mg/kg/injection, schedule: Q01DX009 (ip), vehicle: saline
[12] = endpoint: mean survival time, dose: 100.0 mg/kg/injection, schedule: Q04DX003 (ip), vehicle: Klucel (hydroxypropylcellulose) (HPC)
[13] = endpoint: mean survival time, dose: 200.0 mg/kg/injection, schedule: Q04DX003 (ip), vehicle: Klucel (hydroxypropylcellulose) (HPC)
[14] = endpoint: mean survival time, dose: 400.0 mg/kg/injection, schedule: Q04DX003 (ip), vehicle: Klucel (hydroxypropylcellulose) (HPC)
[15] = endpoint: mean survival time, dose: 50.0 mg/kg/injection, schedule: Q01DX009 (ip), vehicle: saline with Tween-80
[16] = endpoint: mean survival time, dose: 100.0 mg/kg/injection, schedule: Q01DX001 (ip), vehicle: saline with Tween-80
[17] = endpoint: mean survival time, dose: 200.0 mg/kg/injection, schedule: Q01DX001 (ip), vehicle: saline with Tween-80
[18] = endpoint: mean survival time, dose: 400.0 mg/kg/injection, schedule: Q01DX001 (ip), vehicle: saline with Tween-80
[19] = endpoint: mean survival time, dose: 12.5 mg/kg/injection, schedule: Q01DX009 (ip), vehicle: saline
[20] = endpoint: mean survival time, dose: 25.0 mg/kg/injection, schedule: Q01DX009 (ip), vehicle: saline

With CC(=O)C[n+]1ccccc1Sc1ccc(Cl)cc1 the T/C (endpoint: median survival time, dose: 12.5 mg/kg/injection, schedule: Q01DX005 (ip), vehicle: saline with Tween-80) was 100 % of control, the T/C (endpoint: median survival time, dose: 25.0 mg/kg/injection, schedule: Q01DX005 (ip), vehicle: saline with Tween-80) was 101 % of control and the T/C (endpoint: median survival time, dose: 50.0 mg/kg/injection, schedule: Q01DX005 (ip), vehicle: saline with Tween-80) was 97 % of control. For the same compound, the T/C (endpoint: median survival time, dose: 100.0 mg/kg/injection, schedule: Q01DX005 (ip), vehicle: saline with Tween-80) was 107 % of control.
Cc1ccc(S(=O)(=O)Nc2ccc([N+](=O)[O-])cc2OS(=O)(=O)c2ccc(C)cc2)cc1 was tested, and the T/C (endpoint: mean survival time, dose: 100.0 mg/kg/injection, schedule: Q04DX003 (ip), vehicle: alcohol) was 100 % of control, the T/C (endpoint: mean survival time, dose: 200.0 mg/kg/injection, schedule: Q04DX003 (ip), vehicle: alcohol) was 95 % of control and the T/C (endpoint: mean survival time, dose: 400.0 mg/kg/injection, schedule: Q04DX003 (ip), vehicle: alcohol) was 92 % of control.
With COc1ccc(CCNC(=O)Cc2ccc(OC)c(OC)c2)cc1OC the T/C [1] was 93 % of control, the T/C [2] was 96 % of control and the T/C [3] was 96 % of control.
Nc1nc(N)c(N=Nc2ccc(S(=O)(=O)c3ccc(N=Nc4c(N)nc(N)[nH]c4=O)cc3)cc2)c(=O)[nH]1 was tested, and the T/C [4] was 102 % of control, the T/C [5] was 92 % of control and the T/C (endpoint: mean survival time, dose: 400.0 mg/kg/injection, schedule: Q01DX009 (ip), vehicle: saline with Tween-80) was 92 % of control.
With Fc1cc2cc3ccccc3cc2c2ccccc12 the T/C [6] was 101 % of control, the T/C [7] was 104 % of control and the T/C [8] was 104 % of control.
CN(C)C(=O)C1C2C=CC(CCC2)C1C(=O)N(C)C (stereo unspecified) was tested, and the T/C [9] was 91 % of control, the T/C [10] was 88 % of control and the T/C (endpoint: mean survival time, dose: 400.0 mg/kg/injection, schedule: Q04DX002 (ip), vehicle: saline) was 91 % of control.
In the case of Oc1ccccc1/C=N\Nc1ccccc1, the T/C (endpoint: mean survival time, dose: 100.0 mg/kg/injection, schedule: Q01DX009 (ip), vehicle: saline) is reported as 98 % of control, the T/C [11] is reported as 98 % of control and the T/C (endpoint: mean survival time, dose: 400.0 mg/kg/injection, schedule: Q01DX009 (ip), vehicle: saline) is reported as 102 % of control.
O=C(NNC1CCCCC1)c1ccccc1 was tested, and the T/C (endpoint: mean survival time, dose: 100.0 mg/kg/injection, schedule: Q01DX009 (ip), vehicle: acetone) was 103 % of control.
COc1ccc(C(CO)CC(=O)NCCN(C)C)cc1 (stereo unspecified) was tested, and the T/C [9] was 100 % of control and the T/C [10] was 107 % of control.
For CCOC(=O)C1=C(C)NC(C)=C(C(=O)OCC)C1c1ccccc1Cl, the T/C (endpoint: mean survival time, dose: 12.5 mg/kg/injection, schedule: Q01DX009 (ip), vehicle: acetone) was 102 % of control, the T/C (endpoint: mean survival time, dose: 25.0 mg/kg/injection, schedule: Q01DX009 (ip), vehicle: acetone) was 100 % of control and the T/C (endpoint: mean survival time, dose: 50.0 mg/kg/injection, schedule: Q01DX009 (ip), vehicle: acetone) was 104 % of control.
With O=c1[nH]c(=S)[nH]c(-c2ccccc2)c1Cc1c(O)ccc2ccccc12 the T/C (endpoint: mean survival time, dose: 100.0 mg/kg/injection, schedule: Q01DX001 (ip), vehicle: saline) was 101 % of control, the T/C (endpoint: mean survival time, dose: 200.0 mg/kg/injection, schedule: Q01DX001 (ip), vehicle: saline) was 100 % of control and the T/C (endpoint: mean survival time, dose: 400.0 mg/kg/injection, schedule: Q01DX001 (ip), vehicle: saline) was 97 % of control.
With CN(C)C(=O)C(Cc1c[nH]c2ccccc12)NC(=O)c1ccccc1 (stereo unspecified) the T/C [6] was 95 % of control, the T/C [7] was 103 % of control and the T/C [8] was 98 % of control.
For C(=N\N(c1ccccc1)c1ccccc1)/c1ccc(/C=N/N(c2ccccc2)c2ccccc2)cc1, the T/C [12] was 97 % of control, the T/C [13] was 95 % of control and the T/C [14] was 95 % of control.
C(=N\Nc1nc2ccccc2s1)/c1ccncc1 was tested, and the T/C [12] was 90 % of control, the T/C [13] was 92 % of control and the T/C [14] was 90 % of control.
With c1ccc(C(OOC(c2ccccc2)(c2ccccc2)c2ccccc2)(c2ccccc2)c2ccccc2)cc1 the T/C [15] was 90 % of control, the T/C [4] was 90 % of control and the T/C [5] was 90 % of control.
For CC(C)C1C(O)C23CCC4C(C)(CO)CCCC4(C)C2CC13 (stereo unspecified), the T/C [16] was 96 % of control, the T/C [17] was 94 % of control and the T/C [18] was 94 % of control.
For CNN=C1CCCC1, the T/C [19] was 97 % of control and the T/C [20] was 102 % of control.
O=C(c1ccccc1)C1C(C(=O)c2ccccc2)C1c1ccccc1 (stereo unspecified) was tested, and the T/C [16] was 87 % of control, the T/C [17] was 90 % of control and the T/C [18] was 93 % of control.
With CC(=O)Oc1ccc(N2C(=O)C=CC2=O)cc1 the T/C (endpoint: mean survival time, dose: 12.5 mg/kg/injection, schedule: Q04DX003 (ip), vehicle: Klucel (hydroxypropylcellulose) (HPC)) was 96 % of control.
CCCCCC(=O)NCC(=O)N1CCCC1C(=O)NCCCCC(=O)OC (stereo unspecified) (Hexanoyl-Gly-[ξP]-[Ava]-OMe) was tested, and the T/C [2] was 98 % of control, the T/C [3] was 107 % of control and the T/C (endpoint: mean survival time, dose: 400.0 mg/kg/injection, schedule: Q04DX003 (ip), vehicle: saline) was 103 % of control.
With O=C(O)CCC(=O)CC1CCCCC1 the T/C [15] was 98 % of control, the T/C [4] was 105 % of control and the T/C [5] was 98 % of control.
For NC(N)=NC(N)=Nc1cnccn1, the T/C (endpoint: mean survival time, dose: 25.0 mg/kg/injection, schedule: Q01DX009 (ip), vehicle: saline sonified) was 91 % of control, the T/C (endpoint: mean survival time, dose: 25.0 mg/kg/injection, schedule: Q04DX003 (ip), vehicle: saline) was 104 % of control and the T/C (endpoint: mean survival time, dose: 50.0 mg/kg/injection, schedule: Q01DX009 (ip), vehicle: saline sonified) was 97 % of control. For the same compound, the T/C [1] was 98 % of control, the T/C (endpoint: mean survival time, dose: 75.0 mg/kg/injection, schedule: Q01DX001 (ip), vehicle: saline) was 95 % of control and the T/C (endpoint: mean survival time, dose: 100.0 mg/kg/injection, schedule: Q01DX009 (ip), vehicle: saline sonified) was 95 % of control. For the same compound, the T/C [2] was 104 % of control and the T/C (endpoint: mean survival time, dose: 150.0 mg/kg/injection, schedule: Q01DX001 (ip), vehicle: saline) was 93 % of control.
In the case of CCCCCCCCCCCCCCCC(=O)Nc1ccn(C2OC(CO)C(O)C2O)c(=O)n1 (stereo unspecified), the T/C [19] is reported as 213 % of control and 268 % of control, the T/C [20] is reported as 189 % of control and 270 % of control and the T/C (endpoint: mean survival time, dose: 50.0 mg/kg/injection, schedule: Q01DX009 (ip), vehicle: saline) is reported as 225 % of control and 307 % of control. For the same compound, the T/C (endpoint: mean survival time, dose: 50.0 mg/kg/injection, schedule: Q04DX002 (ip), vehicle: saline) was 331 % of control, the T/C [9] was 344 % of control and 345 % of control and the T/C [11] was 95 % of control. For the same compound, the T/C [10] was 198 % of control.
For C[N+](C)(C)CCOC(=O)Nc1ccc(C(c2ccc(NC(=O)OCC[N+](C)(C)C)cc2)c2ccc(NC(=O)OCC[N+](C)(C)C)cc2)cc1, the T/C (endpoint: mean survival time, dose: 0.25 mg/kg/injection, schedule: Q04DX003 (ip), vehicle: saline with Tween-80) was 97 % of control, the T/C (endpoint: mean survival time, dose: 0.5 mg/kg/injection, schedule: Q04DX003 (ip), vehicle: saline with Tween-80) was 96 % of control and the T/C (endpoint: mean survival time, dose: 1.0 mg/kg/injection, schedule: Q04DX003 (ip), vehicle: saline with Tween-80) was 94 % of control.
